Where two headings read alike, the source gives them in different places.
Experiments:
human topoisomerase I = biological target: T1, human topoisomerase I (Homo sapiens, UniProt P11387); settings: relative topoisomerase I inhibition levels, previously determined, six levels (0 - 5, +++++ = 5); cited from earlier work
T1 sequence (P11387 1-765): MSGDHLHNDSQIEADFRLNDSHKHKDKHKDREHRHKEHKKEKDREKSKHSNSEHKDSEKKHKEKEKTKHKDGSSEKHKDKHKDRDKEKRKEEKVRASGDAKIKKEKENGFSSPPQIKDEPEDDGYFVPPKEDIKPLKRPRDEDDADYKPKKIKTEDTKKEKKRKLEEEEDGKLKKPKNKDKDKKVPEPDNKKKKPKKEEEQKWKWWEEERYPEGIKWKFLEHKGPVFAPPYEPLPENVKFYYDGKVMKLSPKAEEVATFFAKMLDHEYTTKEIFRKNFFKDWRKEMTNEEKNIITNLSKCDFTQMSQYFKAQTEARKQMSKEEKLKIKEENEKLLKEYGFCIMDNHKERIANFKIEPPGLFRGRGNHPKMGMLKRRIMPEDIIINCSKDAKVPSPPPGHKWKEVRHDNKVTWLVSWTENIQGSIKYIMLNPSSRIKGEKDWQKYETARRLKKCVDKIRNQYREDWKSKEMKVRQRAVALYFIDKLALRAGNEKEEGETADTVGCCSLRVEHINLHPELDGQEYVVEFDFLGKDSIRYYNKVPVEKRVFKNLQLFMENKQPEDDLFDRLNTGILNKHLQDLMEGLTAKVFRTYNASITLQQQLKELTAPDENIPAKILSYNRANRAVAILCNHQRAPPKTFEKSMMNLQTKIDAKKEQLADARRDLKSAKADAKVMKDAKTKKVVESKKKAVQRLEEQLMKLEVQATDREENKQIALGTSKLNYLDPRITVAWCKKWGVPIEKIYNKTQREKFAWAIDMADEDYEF

NCI-60 cancer cell lines = assay: NCI-60 cancer cell line drug screen (GI50, MGM); format: cell-based, human; settings: Homo sapiens; for GI50: read-out: Antiproliferative Activities [GI50 (μM)]; for mean GI50 across NCI-60 panel (MGM): average of GI50 values across the entire panel of NCI-60 cancer cell lines
Procedure: Cancer cells were incubated with the test compounds at five concentrations ranging from 100 μM to 10 nM for 48 h. […] The approximate average of GI50 values across the entire panel of NCI-60 cancer cell lines for each compound was recorded as the MGM value.

[1] = A549, Non-Small Cell Lung Cancer, A549/ATCC
[2] = COLO 205, Colon Cancer, COLO 205
[3] = DU-145, Prostate Cancer, DU-145
[4] = HCC 2998, Colon Cancer, HCC-2998
[5] = HOP-92, Non-Small Cell Lung Cancer, HOP-92
[6] = Hs-578T, Breast Cancer, HS 578T
[7] = IGROV-1, Ovarian Cancer, IGROV1
[8] = MDA-MB-231, Breast Cancer, MDA-MB-231/ATCC
[9] = MDA-MB-435, Melanoma, MDA-MB-435
[10] = MDA-MB-468, Breast Cancer, MDA-MB-468
[11] = NCI-H23, Non-Small Cell Lung Cancer, NCI-H23
[12] = NCI-H226, Non-Small Cell Lung Cancer, NCI-H226
[13] = NCI-H322M, Non-Small Cell Lung Cancer, NCI-H322M
[14] = NCI-H460, Non-Small Cell Lung Cancer, NCI-H460
[15] = NCI-H522, Non-Small Cell Lung Cancer, NCI-H522
[16] = OVCAR-3, Ovarian Cancer, OVCAR-3
[17] = OVCAR-4, Ovarian Cancer, OVCAR-4
[18] = OVCAR-5, Ovarian Cancer, OVCAR-5
[19] = OVCAR-8, Ovarian Cancer, OVCAR-8
[20] = SK-OV-3, Ovarian Cancer, SK-OV-3

COc1cc2c(cc1O)-c1c(c3ccc([N+](=O)[O-])cc3c(=O)n1CCCN1CCOCC1)C2=O [Compound 36]
Top1 Inhibiton (human topoisomerase I): ++ (medium inhibition, ++, MYC expression inhibited at 2.0 μM, or no clear dose-dependent MYC inhibition)
GI50 (NCI-60 cancer cell lines; 786-0, Renal Cancer, 786-0): 0.21 µM
GI50 (NCI-60 cancer cell lines; A498, Renal Cancer, A498): 0.07 µM
GI50 (NCI-60 cancer cell lines; [1]): 0.52 µM
GI50 (NCI-60 cancer cell lines; ACHN, Renal Cancer, ACHN): 0.05 µM
GI50 (NCI-60 cancer cell lines; BT-549, Breast Cancer, BT-549): 0.12 µM
GI50 (NCI-60 cancer cell lines; CAKI-1, Renal Cancer, CAKI-1): 0.12 µM
GI50 (NCI-60 cancer cell lines; CCRF-CEM, Leukemia, CCRF-CEM): 0.05 µM
GI50 (NCI-60 cancer cell lines; [2]): 7.76 µM
GI50 (NCI-60 cancer cell lines; [3]): 0.14 µM
GI50 (NCI-60 cancer cell lines; [4]): 1.42 µM
GI50 (NCI-60 cancer cell lines; HCT-15, Colon Cancer, HCT-15): 1.53 µM
GI50 (NCI-60 cancer cell lines; HCT-116, Colon Cancer, HCT-116): 0.22 µM
GI50 (NCI-60 cancer cell lines; HL-60, Leukemia, HL-60(TB)): 0.08 µM
GI50 (NCI-60 cancer cell lines; HOP-62, Non-Small Cell Lung Cancer, HOP-62): 0.12 µM
GI50 (NCI-60 cancer cell lines; [5]): 0.28 µM
GI50 (NCI-60 cancer cell lines; HT-29, Colon Cancer, HT29): 1.18 µM
GI50 (NCI-60 cancer cell lines; [6]): 1.97 µM
GI50 (NCI-60 cancer cell lines; [7]): 1.52 µM
GI50 (NCI-60 cancer cell lines; K562, Leukemia, K-562): 0.09 µM
GI50 (NCI-60 cancer cell lines; KM12, Colon Cancer, KM12): 1.04 µM
GI50 (NCI-60 cancer cell lines; LOX IMVI, Melanoma, LOX IMVI): 0.09 µM
GI50 (NCI-60 cancer cell lines; Leukemia, SR): 0.03 µM
GI50 (NCI-60 cancer cell lines; MCF7, Breast Cancer, MCF7): 0.05 µM
GI50 (NCI-60 cancer cell lines; [8]): 2.06 µM
GI50 (NCI-60 cancer cell lines; [9]): 0.89 µM
GI50 (NCI-60 cancer cell lines; [10]): 0.14 µM
GI50 (NCI-60 cancer cell lines; MOLT-4, Leukemia, MOLT-4): 0.03 µM
GI50 (NCI-60 cancer cell lines; Malme-3M, Melanoma, MALME-3M): 1.16 µM
GI50 (NCI-60 cancer cell lines; Melanoma, M14): 0.08 µM
GI50 (NCI-60 cancer cell lines; [11]): 0.17 µM
GI50 (NCI-60 cancer cell lines; [12]): 0.45 µM
GI50 (NCI-60 cancer cell lines; [13]): 0.66 µM
GI50 (NCI-60 cancer cell lines; [14]): 0.03 µM
GI50 (NCI-60 cancer cell lines; [15]): 0.05 µM
GI50 (NCI-60 cancer cell lines; [16]): 0.57 µM
GI50 (NCI-60 cancer cell lines; [17]): 1.29 µM
GI50 (NCI-60 cancer cell lines; [18]): 3.6 µM
GI50 (NCI-60 cancer cell lines; [19]): 0.45 µM
GI50 (NCI-60 cancer cell lines; Ovarian Cancer, NCl/ADR-RES): 0.28 µM
GI50 (NCI-60 cancer cell lines; Prostate Cancer, PC-3): 0.67 µM
GI50 (NCI-60 cancer cell lines; RPMI-8226, Leukemia, RPMI-8226): 0.12 µM
GI50 (NCI-60 cancer cell lines; RXF 393, Renal Cancer, RXF 393): 0.46 µM
GI50 (NCI-60 cancer cell lines; Renal Cancer, U0-31): 0.07 µM
GI50 (NCI-60 cancer cell lines; SF-268, CNS Cancer, SF-268): 0.04 µM
GI50 (NCI-60 cancer cell lines; SF-295, CNS Cancer, SF-295): 0.18 µM
GI50 (NCI-60 cancer cell lines; SF-539, CNS Cancer, SF-539): 0.27 µM
GI50 (NCI-60 cancer cell lines; SK-MEL-2, Melanoma, SK-MEL-2): 9.44 µM
GI50 (NCI-60 cancer cell lines; SK-MEL-5, Melanoma, SK-MEL-5): 0.22 µM
GI50 (NCI-60 cancer cell lines; SK-MEL-28, Melanoma, SK-MEL-28): 1.37 µM
GI50 (NCI-60 cancer cell lines; [20]): 0.24 µM
GI50 (NCI-60 cancer cell lines; SN12C, Renal Cancer, SN12C): 0.2 µM
GI50 (NCI-60 cancer cell lines; SNB-19, CNS Cancer, SNB-19): 0.39 µM
GI50 (NCI-60 cancer cell lines; SNB-75, CNS Cancer, SNB-75): 0.21 µM
GI50 (NCI-60 cancer cell lines; SW-620, Colon Cancer, SW-620): 0.08 µM
GI50 (NCI-60 cancer cell lines; T47D, Breast Cancer, T-47D): 0.56 µM
GI50 (NCI-60 cancer cell lines; TK-10, Renal Cancer, TK-10): 2.12 µM
GI50 (NCI-60 cancer cell lines; U-251, CNS Cancer, U251): 0.12 µM
GI50 (NCI-60 cancer cell lines; UACC-62, Melanoma, UACC-62): 0.05 µM
GI50 (NCI-60 cancer cell lines; UACC-257, Melanoma, UACC-257): 0.48 µM
mean GI50 across NCI-60 panel (MGM) (NCI-60 cancer cell lines): 280 nM

COc1cnc2c(c1)C(=O)c1c-2n(CCCNCCN2CCOCC2)c(=O)c2cc([N+](=O)[O-])ccc12 [Compound 11]
Top1 Inhibiton (human topoisomerase I): +++ (strong inhibition, +++, MYC expression inhibited at 0.5 to 1.0 μM)
GI50 (NCI-60 cancer cell lines; 786-0, Renal Cancer, 786-0): 0.22 µM
GI50 (NCI-60 cancer cell lines; [1]): 0.12 µM
GI50 (NCI-60 cancer cell lines; ACHN, Renal Cancer, ACHN): 0.04 µM
GI50 (NCI-60 cancer cell lines; BT-549, Breast Cancer, BT-549): 0.29 µM
GI50 (NCI-60 cancer cell lines; CAKI-1, Renal Cancer, CAKI-1): 0.04 µM
GI50 (NCI-60 cancer cell lines; CCRF-CEM, Leukemia, CCRF-CEM): 0.05 µM
GI50 (NCI-60 cancer cell lines; [2]): 0.3 µM
GI50 (NCI-60 cancer cell lines; [3]): 0.06 µM
GI50 (NCI-60 cancer cell lines; EKVX, Non-Small Cell Lung Cancer, EKVX): 0.45 µM
GI50 (NCI-60 cancer cell lines; [4]): 0.3 µM
GI50 (NCI-60 cancer cell lines; HCT-15, Colon Cancer, HCT-15): 0.3 µM
GI50 (NCI-60 cancer cell lines; HL-60, Leukemia, HL-60(TB)): 0.1 µM
GI50 (NCI-60 cancer cell lines; [5]): 0.87 µM
GI50 (NCI-60 cancer cell lines; HT-29, Colon Cancer, HT29): 0.15 µM
GI50 (NCI-60 cancer cell lines; [6]): 3.85 µM
GI50 (NCI-60 cancer cell lines; [7]): 0.42 µM
GI50 (NCI-60 cancer cell lines; K562, Leukemia, K-562): 0.23 µM
GI50 (NCI-60 cancer cell lines; KM12, Colon Cancer, KM12): 0.4 µM
GI50 (NCI-60 cancer cell lines; LOX IMVI, Melanoma, LOX IMVI): 0.04 µM
GI50 (NCI-60 cancer cell lines; Leukemia, SR): 0.02 µM
GI50 (NCI-60 cancer cell lines; MCF7, Breast Cancer, MCF7): 0.03 µM
GI50 (NCI-60 cancer cell lines; [8]): 0.63 µM
GI50 (NCI-60 cancer cell lines; [9]): 0.42 µM
GI50 (NCI-60 cancer cell lines; [10]): 0.12 µM
GI50 (NCI-60 cancer cell lines; MOLT-4, Leukemia, MOLT-4): 0.03 µM
GI50 (NCI-60 cancer cell lines; Malme-3M, Melanoma, MALME-3M): 0.34 µM
GI50 (NCI-60 cancer cell lines; Melanoma, M14): 0.07 µM
GI50 (NCI-60 cancer cell lines; [11]): 0.15 µM
GI50 (NCI-60 cancer cell lines; [12]): 0.17 µM
GI50 (NCI-60 cancer cell lines; [13]): 0.28 µM
GI50 (NCI-60 cancer cell lines; [14]): 0.04 µM
GI50 (NCI-60 cancer cell lines; [15]): 0.08 µM
GI50 (NCI-60 cancer cell lines; [16]): 0.32 µM
GI50 (NCI-60 cancer cell lines; [17]): 0.33 µM
GI50 (NCI-60 cancer cell lines; [18]): 0.45 µM
GI50 (NCI-60 cancer cell lines; [19]): 0.17 µM
GI50 (NCI-60 cancer cell lines; Ovarian Cancer, NCl/ADR-RES): 0.13 µM
GI50 (NCI-60 cancer cell lines; Prostate Cancer, PC-3): 0.57 µM
GI50 (NCI-60 cancer cell lines; RPMI-8226, Leukemia, RPMI-8226): 0.17 µM
GI50 (NCI-60 cancer cell lines; RXF 393, Renal Cancer, RXF 393): 0.39 µM
GI50 (NCI-60 cancer cell lines; Renal Cancer, U0-31): 0.05 µM
GI50 (NCI-60 cancer cell lines; SF-268, CNS Cancer, SF-268): 0.08 µM
GI50 (NCI-60 cancer cell lines; SF-295, CNS Cancer, SF-295): 0.07 µM
GI50 (NCI-60 cancer cell lines; SF-539, CNS Cancer, SF-539): 0.31 µM
GI50 (NCI-60 cancer cell lines; SK-MEL-2, Melanoma, SK-MEL-2): 1.59 µM
GI50 (NCI-60 cancer cell lines; SK-MEL-5, Melanoma, SK-MEL-5): 0.26 µM
GI50 (NCI-60 cancer cell lines; SK-MEL-28, Melanoma, SK-MEL-28): 1.13 µM
GI50 (NCI-60 cancer cell lines; [20]): 0.14 µM
GI50 (NCI-60 cancer cell lines; SNB-19, CNS Cancer, SNB-19): 0.11 µM
GI50 (NCI-60 cancer cell lines; SNB-75, CNS Cancer, SNB-75): 0.27 µM
GI50 (NCI-60 cancer cell lines; SW-620, Colon Cancer, SW-620): 0.13 µM
GI50 (NCI-60 cancer cell lines; T47D, Breast Cancer, T-47D): 0.11 µM
GI50 (NCI-60 cancer cell lines; TK-10, Renal Cancer, TK-10): 0.73 µM
GI50 (NCI-60 cancer cell lines; U-251, CNS Cancer, U251): 0.08 µM
GI50 (NCI-60 cancer cell lines; UACC-62, Melanoma, UACC-62): 0.04 µM
GI50 (NCI-60 cancer cell lines; UACC-257, Melanoma, UACC-257): 0.59 µM
mean GI50 across NCI-60 panel (MGM) (NCI-60 cancer cell lines): 177 nM

Reference: patent US20210382058A1, “PATIENT SELECTION FOR TREATMENT OF MYC POSITIVE CANCERS WITH INDENOISOQUINOLINES” (Purdue Research Foundation, priority 2020, published 2021)
